Experimental data from US12281122B1, “PI3K inhibitors” (Cogent Biosciences, Inc., priority 2023, dated 2025).

Columns and labels:
[1] = system: SKBR3 (PI3Kα-Wild Type) cell line; experiment: HTRF phospho-AKT(S473) cell assay in SKBR3 cells; type: cell-based, human; conditions: Homo sapiens, SK-BR-3, 2 hours compound incubation, PDGF-BB stimulated
Summary of the method: (§1)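 Cells plated overnight (T47D in RPMI/10% FBS/0.2 units/mL insulin; SKBR3 in McCoy's 5A/10% FBS), then given 12-point 1:3 compound series (top 5 μM T47D, 10 μM SKBR3; ≤0.5% DMSO) for 2 h at 37° C. SKBR3 stimulated with 70 ng/ml PDGF-BB for final 15 min. Lysate pAKT(S473) by HTRF; IC50 calculated.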

[2] = system: T47D (PI3Kα-H1047R) cell line; experiment: HTRF phospho-AKT(S473) cell assay in T47D cells; type: cell-based, human; conditions: Homo sapiens, 2 hours compound incubation
Summary of the method: as §1

[3] = HTRF phospho-AKT(S473), SKBR3 (PI3Kα-Wild Type) cells
[4] = HTRF phospho-AKT(S473), T47D (PI3Kα-H1047R) cells
[5] = SKBR3 (PI3Kα-Wild Type) cells, HTRF phospho-AKT(S473)
[6] = T47D (PI3Kα-H1047R) cells, HTRF phospho-AKT(S473)

SMILES | IC50 [1, 3] | IC50 [2, 4] | IC50 [1, 5] | IC50 [2, 6] | other results
Cc1cc([C@@H](C)Nc2ccc(Cl)nc2C(=O)NS(C)(=O)=O)c2nc(N3CCC(c4cn(C(C)C)nn4)CC3)n(C)c(=O)c2c1 [Compound 573, (R)-6-chloro-3-((1-(2-(4-(1-isopropyl-1H-1,2,3-triazol-4-yl)piperidin-1-yl)-3,6-dimethyl-4-oxo-3,4-dihydroquinazolin-8-yl)ethyl)amino)-N-(methylsulfonyl) picolinamide] | 1 to 5 µM | < 0.25 µM |  |  | 
Cc1cc([C@@H](C)Nc2ccc(Cl)nc2C(=O)NS(C)(=O)=O)c2nc(N3CCC(C4=NN(C)C(=O)C4(F)F)CC3)n(C)c(=O)c2c1 [Compound 561, (R)-6-chloro-3-((1-(2-(4-(4,4-difluoro-1-methyl-5-oxo-4,5-dihydro-1H-pyrazol-3-yl)piperidin-1-yl)-3,6-dimethyl-4-oxo-3,4-dihydroquinazolin-8-yl)ethyl)amino)-N-(methylsulfonyl) picolinamide] | ≥ 5 µM | 0.25 to 0.5 µM |  |  | 
COc1cnn(C2CCN(c3nc4c([C@@H](C)Nc5ccc(Cl)nc5C(=O)NS(C)(=O)=O)cc(C)cc4c(=O)n3C)CC2)c1 [Compound 311, (R)-6-chloro-3-((1-(2-(4-(4-methoxy-1H-pyrazol-1-yl)piperidin-1-yl)-3,6-dimethyl-4-oxo-3,4-dihydroquinazolin-8-yl)ethyl)amino)-N-(methylsulfonyl) picolinamide] |  |  | 1 to 5 µM | < 0.25 µM | 
Cc1cc([C@@H](C)Nc2ccc(Cl)nc2C(=O)NS(C)(=O)=O)c2nc(N3CCC(c4ncccn4)CC3)n(C)c(=O)c2c1 [Compound 500, (R)-6-chloro-3-((1-(3,6-dimethyl-4-oxo-2-(4-(pyrimidin-2-yl)piperidin-1-yl)-3,4-dihydroquinazolin-8-yl)ethyl)amino)-N-(methylsulfonyl) picolinamide] | 1 to 5 µM | 0.25 to 0.5 µM |  |  | 
Cc1cc([C@@H](C)Nc2ccc(Cl)nc2C(=O)NS(C)(=O)=O)c2nc(N3CCC(n4ncc5cc(C#N)ccc54)CC3)n(C)c(=O)c2c1 [Compound 255, (R)-6-chloro-3-((1-(2-(4-(5-cyano-1H-indazol-1-yl)piperidin-1-yl)-3,6-dimethyl-4-oxo-3,4-dihydroquinazolin-8-yl)ethyl)amino)-N-(methylsulfonyl) picolinamide] |  |  | 1 to 5 µM | < 0.25 µM | 
Cc1cc([C@@H](C)Nc2ccc(Cl)nc2C(=O)NS(C)(=O)=O)c2nc(N3CC[C@@H](Nc4ncccn4)C3)n(C)c(=O)c2c1 [Compound 541, 6-chloro-3-(((R)-1-(3,6-dimethyl-4-oxo-2-((R)-3-(pyrimidin-2-ylamino)pyrrolidin-1-yl)-3,4-dihydroquinazolin-8-yl)ethyl)amino)-N-(methylsulfonyl) picolinamide] | ≥ 5 µM | < 0.25 µM |  |  | 
Cc1cc([C@@H](C)Nc2ccc(Cl)nc2C(=O)NS(C)(=O)=O)c2nc([C@H]3[C@@H]4CNC[C@@H]43)n(C)c(=O)c2c1 [Compound 848, 3-(((R)-1-(2-((1R,5S,6r)-3-azabicyclo[3.1.0]hexan-6-yl)-3,6-dimethyl-4-oxo-3,4-dihydroquinazolin-8-yl)ethyl)amino)-6-chloro-N-(methylsulfonyl) picolinamide] |  |  |  |  | IC50 ([1]; SKBR3 (PI3Kα-Wild Type) cell line, phospho-AKT(S473) HTRF): ≥ 5 µM; IC50 ([2]; T47D (PI3Kα-H1047R) cell line, phospho-AKT(S473) HTRF): 1 to 5 µM
Cc1cc([C@@H](C)Nc2ccc(Cl)nc2C(=O)NS(C)(=O)=O)c2nc(N3CC[C@@H](c4cnc(C)nc4)C3)n(C)c(=O)c2c1 (relative stereo) [Compound 657, 6-chloro-3-(((R)-1-(3,6-dimethyl-2-((R*)-3-(2-methylpyrimidin-5-yl)pyrrolidin-1-yl)-4-oxo-3,4-dihydroquinazolin-8-yl)ethyl)amino)-N-(methylsulfonyl) picolinamide] | ≥ 5 µM | 0.25 to 0.5 µM |  |  | 
Cc1cc([C@@H](C)Nc2ccc(Cl)nc2C(=O)NS(C)(=O)=O)c2nc(N3Cc4cccc(-c5ccnn5C)c4C3)n(C)c(=O)c2c1 [Compound 274, (R)-6-chloro-3-((1-(3,6-dimethyl-2-(4-(1-methyl-1H-pyrazol-5-yl)isoindolin-2-yl)-4-oxo-3,4-dihydroquinazolin-8-yl)ethyl)amino)-N-(methylsulfonyl) picolinamide] |  |  | 1 to 5 µM | < 0.25 µM | 
Cc1cc([C@@H](C)Nc2ccc(Cl)nc2C(=O)NS(=O)(=O)[C@H]2C[C@@H](O)C2)c2nc(N3Cc4ccc(F)cc4C3)n(C)c(=O)c2c1 (relative stereo) [Compound 337, 6-chloro-3-(((R)-1-(2-(5-fluoroisoindolin-2-yl)-3,6-dimethyl-4-oxo-3,4-dihydroquinazolin-8-yl)ethyl)amino)-N-(((1S*,3S*)-3-hydroxycyclobutyl)sulfonyl)picolinamide] |  |  | 1 to 5 µM | < 0.25 µM | 
Cc1cc([C@@H](C)Nc2ccc(Cl)nc2C(=O)NS(C)(=O)=O)c2nc(N3CC[C@H](Oc4cnn(C)c4)C3)n(C)c(=O)c2c1 [Compound 331, 6-chloro-3-(((R)-1-(3,6-dimethyl-2-((S)-3-((1-methyl-1H-pyrazol-4-yl)oxy)pyrrolidin-1-yl)-4-oxo-3,4-dihydroquinazolin-8-yl)ethyl)amino)-N-(methylsulfonyl) picolinamide] |  |  | 1 to 5 µM | < 0.25 µM | 
Cc1cc([C@@H](C)Nc2ccc(Cl)nc2C(=O)NS(C)(=O)=O)c2nc(N3CCC(c4nccnc4C)CC3)n(C)c(=O)c2c1 [Compound 438, (R)-6-chloro-3-((1-(3,6-dimethyl-2-(4-(3-methylpyrazin-2-yl)piperidin-1-yl)-4-oxo-3,4-dihydroquinazolin-8-yl)ethyl)amino)-N-(methylsulfonyl) picolinamide] |  |  | ≥ 5 µM | 0.25 to 0.5 µM | 
Cc1cc([C@@H](C)Nc2ccc(Cl)nc2C(=O)NS(C)(=O)=O)c2nc(N3CCN(c4ccccc4)CC3)n(C)c(=O)c2c1 [Compound 183, (R)-6-chloro-3-((1-(3,6-dimethyl-4-oxo-2-(4-phenylpiperazin-1-yl)-3,4-dihydroquinazolin-8-yl)ethyl)amino)-N-(methylsulfonyl) picolinamide] |  |  | 1 to 5 µM | < 0.25 µM | 
Cc1cc([C@@H](C)Nc2ccc(Cl)nc2C(=O)NS(C)(=O)=O)c2nc(N3CCC(c4nc(C)n(C)n4)CC3)n(C)c(=O)c2c1 [Compound 459, (R)-6-chloro-3-((1-(2-(4-(1,5-dimethyl-1H-1,2,4-triazol-3-yl)piperidin-1-yl)-3,6-dimethyl-4-oxo-3,4-dihydroquinazolin-8-yl)ethyl)amino)-N-(methylsulfonyl) picolinamide] | ≥ 5 µM | < 0.25 µM |  |  | 

Continued, in another order:

IC50 [1, 3] | IC50 [2, 4] | IC50 [1, 5] | IC50 [2, 6] | SMILES | other results
≥ 5 µM | 0.25 to 0.5 µM |  |  | Cc1cc([C@@H](C)Nc2ccc(Cl)nc2C(=O)NS(C)(=O)=O)c2nc(-c3ccc(-c4ncc(C#N)cc4C)c(F)c3)n(C)c(=O)c2c1 [Compound 799, (R)-6-chloro-3-((1-(2-(4-(5-cyano-3-methylpyridin-2-yl)-3-fluorophenyl)-3,6-dimethyl-4-oxo-3,4-dihydroquinazolin-8-yl)ethyl)amino)-N-(methylsulfonyl) picolinamide] | 
≥ 5 µM | < 0.25 µM |  |  | Cc1cc([C@@H](C)Nc2ccc(Cl)nc2C(=O)NS(C)(=O)=O)c2nc(-c3ccc(N4CCN(C)CC4)cc3)n(C)c(=O)c2c1 [Compound 790, (R)-6-chloro-3-((1-(3,6-dimethyl-2-(4-(4-methylpiperazin-1-yl)phenyl)-4-oxo-3,4-dihydroquinazolin-8-yl)ethyl)amino)-N-(methylsulfonyl) picolinamide] | 
1 to 5 µM | < 0.25 µM |  |  | CCn1c(N2Cc3cn(CC(F)(F)F)nc3C2)nc2c([C@@H](C)Nc3ccc(Cl)nc3C(=O)NS(C)(=O)=O)cc(C)cc2c1=O [Compound 732, (R)-6-chloro-3-((1-(3-ethyl-6-methyl-4-oxo-2-(2-(2,2,2-trifluoroethyl)-2,6-dihydropyrrolo[3,4-c]pyrazol-5(4H)-yl)-3,4-dihydroquinazolin-8-yl)ethyl)amino)-N-(methylsulfonyl) picolinamide] | 
1 to 5 µM | 0.25 to 0.5 µM |  |  | Cc1cc([C@@H](C)Nc2ccc(Cl)nc2C(=O)NS(C)(=O)=O)c2nc(N3C[C@@H]4[C@H](C3)[C@H]4n3ccccc3=O)n(C)c(=O)c2c1 [Compound 755, 6-chloro-3-(((R)-1-(3,6-dimethyl-4-oxo-2-((1R,5S,6S)-6-(2-oxopyridin-1(2H)-yl)-3-azabicyclo[3.1.0]hexan-3-yl)-3,4-dihydroquinazolin-8-yl)ethyl)amino)-N-(methylsulfonyl) picolinamide] | 
1 to 5 µM | < 0.25 µM |  |  | [2H]C([2H])([2H])n1nccc1C1CCN(c2nc3c([C@@H](C)Nc4ccc(Cl)nc4C(=O)NS(C)(=O)=O)cc(C)cc3c(=O)n2C)CC1 [Compound 747, (R)-6-chloro-3-((1-(3,6-dimethyl-2-(4-(1-(methyl-d3)-1H-pyrazol-5-yl)piperidin-1-yl)-4-oxo-3,4-dihydroquinazolin-8-yl)ethyl)amino)-N-(methylsulfonyl) picolinamide] | 
≥ 5 µM | 0.25 to 0.5 µM |  |  | Cc1cc([C@@H](C)Nc2ccc(Cl)nc2C(=O)NS(C)(=O)=O)c2nc(N3CC[C@H](Oc4ccc(F)cc4)C3)n(C)c(=O)c2c1 (relative stereo) [Compound 691, 6-chloro-3-(((R)-1-(2-((R*)-3-(4-fluorophenoxy)pyrrolidin-1-yl)-3,6-dimethyl-4-oxo-3,4-dihydroquinazolin-8-yl)ethyl)amino)-N-(methylsulfonyl) picolinamide] | 
